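Test compounds were applied to cells in 96-well plates for 48 hours at 5 doses. TGI: total growth inhibition.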
Tests used:
Assay in all cases: DTP human tumour cell line panel, 48 h
DU-145 prostate = system: DU-145 prostate
SF-268 CNS = system: SF-268 CNS
UACC-257 melanoma = system: UACC-257 melanoma
NCI-H23 lung = system: NCI-H23 lung
A549 NSCLC = system: A549 NSCLC
SF-539 CNS = system: SF-539 CNS
NCI-H460 lung = system: NCI-H460 lung
HCC-2998 colon = system: HCC-2998 colon
786-0 renal = system: 786-0 renal
SK-MEL-2 melanoma = system: SK-MEL-2 melanoma
BT-549 breast = system: BT-549 breast
MDA-N = system: MDA-N
SNB-19 CNS = system: SNB-19 CNS
SN12C renal = system: SN12C renal
MDA-MB-435 = system: MDA-MB-435
SNB-75 CNS = system: SNB-75 CNS
U251 CNS = system: U251 CNS
IGROV1 ovarian = system: IGROV1 ovarian
K-562 leukemia = system: K-562 leukemia
SF-295 CNS = system: SF-295 CNS
A498 renal = system: A498 renal
OVCAR-5 ovarian = system: OVCAR-5 ovarian
UO-31 renal = system: UO-31 renal
SW-620 colon = system: SW-620 colon
HOP-92 NSCLC = system: HOP-92 NSCLC
OVCAR-8 ovarian = system: OVCAR-8 ovarian
SK-MEL-28 melanoma = system: SK-MEL-28 melanoma
MALME-3M melanoma = system: MALME-3M melanoma
MDA-MB-231 breast = system: MDA-MB-231 breast
OVCAR-4 ovarian = system: OVCAR-4 ovarian
OVCAR-3 ovarian = system: OVCAR-3 ovarian
HL-60(TB) leukemia = system: HL-60(TB) leukemia
RXF 393 renal = system: RXF 393 renal
MCF7 breast = system: MCF7 breast
SK-OV-3 ovarian = system: SK-OV-3 ovarian
HCT-116 colon = system: HCT-116 colon
HS 578T breast = system: HS 578T breast
NCI-H226 lung = system: NCI-H226 lung
SR leukemia = system: SR leukemia
COLO 205 colon = system: COLO 205 colon
NCI/ADR-RES ovarian = system: NCI/ADR-RES ovarian
T-47D breast = system: T-47D breast
NCI-H522 lung = system: NCI-H522 lung
HT29 colon = system: HT29 colon
ACHN renal = system: ACHN renal
UACC-62 melanoma = system: UACC-62 melanoma
TK-10 renal = system: TK-10 renal
HCT-15 colon = system: HCT-15 colon
MOLT-4 leukemia = system: MOLT-4 leukemia
PC-3 prostate = system: PC-3 prostate
SK-MEL-5 melanoma = system: SK-MEL-5 melanoma
EKVX NSCLC = system: EKVX NSCLC
CCRF-CEM leukemia = system: CCRF-CEM leukemia
RPMI-8226 leukemia = system: RPMI-8226 leukemia
KM12 colon = system: KM12 colon
CAKI-1 renal = system: CAKI-1 renal
M14 melanoma = system: M14 melanoma
HOP-62 NSCLC = system: HOP-62 NSCLC

Measured: TGI

Cn1cc2c(=O)n3ncn(-c4ccc(Br)cc4)c3nc2n1
not listed: HOP-62 NSCLC
> 100 µM: all other assays above

CCCC(=O)N/S(=N/S(=O)(=O)c1ccc(Cl)cc1)C(Cl)(Cl)Cl (configuration not stated)
not listed: UACC-257 melanoma | SNB-75 CNS | HOP-92 NSCLC | OVCAR-4 ovarian | COLO 205 colon | NCI-H522 lung | RPMI-8226 leukemia | CAKI-1 renal
> 100 µM: all other assays above

Source: PubChem BioAssay (NCI)
